Our source for the T/C values is PubChem BioAssay AID330 (DTP/NCI, 2004).

The experiment deals with P388 leukemia ip, CD2F1 mice, survival T/C. Kind of experiment: NCI In Vivo Anticancer Drug Screen. Data for tumor model P388 Leukemia (intraperitoneal) in CD2F1 (CDF1) mice. The conditions noted are these: endpoint: median survival time, higher = longer survival. An outline of the steps: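 Mice carrying the transplanted tumor received test compound or vehicle. Survival was recorded in each group, and the value is the treated-group measurement divided by that of the vehicle-treated control group.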

Where [1] appears, read: dose: 60.0 mg/kg/injection, schedule: Q01DX005 (ip), vehicle: saline with Tween-80.
Setting [2] is: dose: 120.0 mg/kg/injection, schedule: Q01DX005 (ip), vehicle: saline with Tween-80.
Where [3] appears, read: dose: 240.0 mg/kg/injection, schedule: Q01DX005 (ip), vehicle: saline with Tween-80.
Setting [4] is: dose: 100.0 mg/kg/injection, schedule: Q04DX003 (ip), vehicle: saline.
Where [5] appears, read: dose: 60.0 mg/kg/injection, schedule: Q01DX005 (ip), vehicle: Klucel (hydroxypropylcellulose) (HPC).
Where [6] appears, read: dose: 120.0 mg/kg/injection, schedule: Q01DX005 (ip), vehicle: Klucel (hydroxypropylcellulose) (HPC).
Where [7] appears, read: dose: 100.0 mg/kg/injection, schedule: Q04DX003 (ip), vehicle: saline with Tween-80.
Setting [8] is: dose: 200.0 mg/kg/injection, schedule: Q04DX003 (ip), vehicle: saline with Tween-80.
The mark [9] stands for this setting: dose: 400.0 mg/kg/injection, schedule: Q04DX003 (ip), vehicle: saline with Tween-80.
The mark [10] stands for this setting: dose: 30.0 mg/kg/injection, schedule: Q01DX005 (ip), vehicle: saline with Tween-80.
Where [11] appears, read: dose: 50.0 mg/kg/injection, schedule: Q01DX001 (ip), vehicle: Klucel (hydroxypropylcellulose) (HPC).
Where [12] appears, read: dose: 100.0 mg/kg/injection, schedule: Q01DX001 (ip), vehicle: Klucel (hydroxypropylcellulose) (HPC).

Values joined by “and” are separate entries in the source; they are usually repeats but may differ in a detail not shown here. Equal entries are not always repeated. Inconclusive results and toxic doses are left out.

`CC1(C)CCc2c(cc3c(c2O)CCC(C)(C)O3)O1`: the T/C runs as follows: under setting [1], 109 % of control; under setting [2], 117 % of control; under setting [3], 100 % of control.

Take `O.O.O=S(=O)(O)C(F)(F)F.[NH2-].[NH2-].[NH2-].[NH2-].[Ru+3]`: the T/C runs as follows: (dose: 12.5 mg/kg/injection, schedule: Q04DX003 (ip), vehicle: saline) 115 % of control; (dose: 25.0 mg/kg/injection, schedule: Q04DX003 (ip), vehicle: saline) 124 % of control; under setting [4], 157 % of control.

As for `N#Cc1c(NCc2ccccc2)nc2c3ccccc3ccn2c1=O`, the T/C by setting is: (dose: 25.0 mg/kg/injection, schedule: Q04DX002 (ip), vehicle: saline with Tween-80) 95 % of control; (dose: 50.0 mg/kg/injection, schedule: Q04DX002 (ip), vehicle: saline with Tween-80) 97 % of control; (dose: 100.0 mg/kg/injection, schedule: Q04DX002 (ip), vehicle: saline with Tween-80) 95 % of control.

`CCOC(=O)c1ccc(NC(=O)Nc2ccc(NC(C)=O)cc2)cc1`: the T/C by setting is: (dose: 15.0 mg/kg/injection, schedule: Q01DX005 (ip), vehicle: Klucel (hydroxypropylcellulose) (HPC)) 95 % of control; (dose: 30.0 mg/kg/injection, schedule: Q01DX005 (ip), vehicle: Klucel (hydroxypropylcellulose) (HPC)) 96 % of control; under setting [5], 87 % of control and 88 % of control and 93 % of control; under setting [6], 87 % of control; (dose: 240.0 mg/kg/injection, schedule: Q01DX005 (ip), vehicle: Klucel (hydroxypropylcellulose) (HPC)) 87 % of control.

For the molecule `CCOC(=O)C(NC(N)=O)C(=O)OCC`, the T/C runs as follows: (dose: 25.0 mg/kg/injection, schedule: Q01DX009 (ip), vehicle: water) 89 % of control; (dose: 50.0 mg/kg/injection, schedule: Q01DX009 (ip), vehicle: water) 99 % of control; (dose: 100.0 mg/kg/injection, schedule: Q01DX009 (ip), vehicle: water) 100 % of control; (dose: 200.0 mg/kg/injection, schedule: Q01DX009 (ip), vehicle: water) 105 % of control; (dose: 400.0 mg/kg/injection, schedule: Q01DX009 (ip), vehicle: water) 91 % of control.

As for `CCOC(=O)NC(=O)CCC(=O)Nc1ccc2ccccc2c1`, the T/C under setting [7] is 97 % of control, the T/C under setting [8] is 95 % of control and the T/C under setting [9] is 96 % of control.

Turning to `COC(=O)C[n+]1ccc2ccccc2c1`, the T/C runs as follows: (dose: 50.0 mg/kg/injection, schedule: Q01DX009 (ip), vehicle: saline) 99 % of control; (dose: 100.0 mg/kg/injection, schedule: Q01DX009 (ip), vehicle: saline) 99 % of control; (dose: 200.0 mg/kg/injection, schedule: Q01DX009 (ip), vehicle: saline) 95 % of control.

As for `C[C@@H]1C(=O)O[C@H]2[C@H]1CC[C@@]1(C)C[C@@H](I)C(=O)[C@@H](C)[C@H]21`, the T/C was 92 % of control under setting [5] and 108 % of control under setting [6].

`COc1ccc(-c2cn3c([nH]c(=O)c4cc(Br)ccc43)c2C#N)cc1`: the T/C by setting is: under setting [1], 91 % of control; under setting [2], 93 % of control; under setting [3], 87 % of control.

For the molecule `CCOC(=O)c1c(C#N)c2cnn(-c3ccccc3)c2n2cccc12`, the T/C (dose: 15.0 mg/kg/injection, schedule: Q01DX005 (ip), vehicle: saline with Tween-80) was 98 % of control; the T/C under setting [10] was 96 % of control; the T/C under setting [1] was 86 % of control and 91 % of control.

Regarding `CCOC(=O)c1c(N)sc2c1CCCCC2`, the T/C reads like this: under setting [7], 100 % of control; under setting [8], 104 % of control; under setting [9], 100 % of control.

`COCCCn1cnn2c(=O)c3ccccc3nc2c1=O`: the T/C reads like this: under setting [1], 103 % of control; under setting [2], 99 % of control; under setting [3], 100 % of control.

For `C=C[C@@]1(C)CC(=O)[C@]2(O)[C@@]3(C)[C@@H](O)CCC(C)(C)[C@@H]3[C@H](O)[C@@H](OC(C)=O)[C@@]2(C)O1`, the T/C is 95 % of control (dose: 6.25 mg/kg/injection, schedule: Q01DX005 (ip), vehicle: saline + Tween-80 + alcohol) and 102 % of control (dose: 12.5 mg/kg/injection, schedule: Q01DX005 (ip), vehicle: saline + Tween-80 + alcohol).

Turning to `CSC(SC)(C(=O)O)c1cc(C)no1`, the T/C under setting [1] was 107 % of control, the T/C under setting [2] was 102 % of control and the T/C under setting [3] was 102 % of control.

For the molecule `CCCCCC(/C=C/C1C(O[Si](C)(C)C(C)(C)C)CC(N(C)C)C1(C/C=C/CCCC(=O)OC)S(=O)(=O)c1ccccc1)O[Si](C)(C)C(C)(C)C` (centres undefined), the T/C (dose: 100.0 mg/kg/injection, schedule: Q04DX002 (ip), vehicle: Klucel (hydroxypropylcellulose) (HPC)) is 91 % of control; the T/C (dose: 200.0 mg/kg/injection, schedule: Q04DX002 (ip), vehicle: Klucel (hydroxypropylcellulose) (HPC)) is 88 % of control; the T/C (dose: 400.0 mg/kg/injection, schedule: Q04DX002 (ip), vehicle: Klucel (hydroxypropylcellulose) (HPC)) is 89 % of control.

Turning to `CC(C)(C)/[N+]([O-])=C/C=C\C=C\C=O`, the T/C was 116 % of control under setting [11]; 120 % of control under setting [12]; 122 % of control (dose: 200.0 mg/kg/injection, schedule: Q01DX001 (ip), vehicle: Klucel (hydroxypropylcellulose) (HPC)).

On to `COC(=O)C1=C(C(=O)OC)C2C=CC1C1C(Br)C(Br)C21` (centres undefined), for which the T/C runs as follows: (dose: 50.0 mg/kg/injection, schedule: Q01DX009 (ip), vehicle: Klucel (hydroxypropylcellulose) (HPC)) 100 % of control; (dose: 100.0 mg/kg/injection, schedule: Q01DX009 (ip), vehicle: Klucel (hydroxypropylcellulose) (HPC)) 102 % of control; (dose: 200.0 mg/kg/injection, schedule: Q01DX009 (ip), vehicle: Klucel (hydroxypropylcellulose) (HPC)) 100 % of control.

Turning to `CCOC(=O)C1=C(C(=O)c2ccc(OC)cc2)C(c2ccc(Cl)cc2Cl)C(C(=O)c2ccc(OC)cc2)=C(C(=O)OCC)N1`, the T/C is, setting by setting: under setting [10], 96 % of control; under setting [1], 91 % of control and 94 % of control; under setting [2], 101 % of control; under setting [3], 92 % of control.

For `C[S+](C)c1ccccc1NC(C)(C)C`, the T/C (dose: 6.25 mg/kg/injection, schedule: Q01DX009 (ip), vehicle: saline + alcohol) was 99 % of control; the T/C (dose: 12.5 mg/kg/injection, schedule: Q01DX009 (ip), vehicle: saline + alcohol) is 100 % of control; the T/C (dose: 25.0 mg/kg/injection, schedule: Q01DX009 (ip), vehicle: saline + alcohol) was 96 % of control; the T/C (dose: 25.0 mg/kg/injection, schedule: Q01DX009 (ip), vehicle: saline) was 101 % of control.

Consider `CC(=O)OCC12CC(c3ccoc3)OC3CCC4C(=O)OC(CC1C)C4(C)C32` (centres undefined), for which the T/C (dose: 5.25 mg/kg/injection, schedule: Q01DX005 (ip), vehicle: Klucel (hydroxypropylcellulose) (HPC)) is 106 % of control; the T/C (dose: 10.5 mg/kg/injection, schedule: Q01DX005 (ip), vehicle: Klucel (hydroxypropylcellulose) (HPC)) was 95 % of control; the T/C (dose: 21.0 mg/kg/injection, schedule: Q01DX005 (ip), vehicle: Klucel (hydroxypropylcellulose) (HPC)) was 100 % of control; the T/C (dose: 42.0 mg/kg/injection, schedule: Q01DX005 (ip), vehicle: Klucel (hydroxypropylcellulose) (HPC)) is 93 % of control.

As for `COc1ccc(OC(N)=O)c2ccccc12`, the T/C was 100 % of control (dose: 25.0 mg/kg/injection, schedule: Q01DX001 (ip), vehicle: Klucel (hydroxypropylcellulose) (HPC)); 100 % of control under setting [11]; 108 % of control under setting [12].

`O=P1(c2ccccc2)CCCCN1` (centres undefined): the T/C is, setting by setting: under setting [4], 104 % of control; (dose: 200.0 mg/kg/injection, schedule: Q04DX003 (ip), vehicle: saline) 110 % of control; (dose: 400.0 mg/kg/injection, schedule: Q04DX003 (ip), vehicle: saline) 110 % of control.

As to `CC(C)NCC(O)COc1cccc2ccccc12` (centres undefined), the T/C is, setting by setting: (dose: 4.0 mg/kg/injection, schedule: Q01DX009 (ip), vehicle: Klucel (hydroxypropylcellulose) (HPC)) 97 % of control; (dose: 8.0 mg/kg/injection, schedule: Q01DX009 (ip), vehicle: Klucel (hydroxypropylcellulose) (HPC)) 98 % of control; (dose: 16.0 mg/kg/injection, schedule: Q01DX009 (ip), vehicle: Klucel (hydroxypropylcellulose) (HPC)) 100 % of control; (dose: 32.0 mg/kg/injection, schedule: Q01DX009 (ip), vehicle: Klucel (hydroxypropylcellulose) (HPC)) 95 % of control; (dose: 64.0 mg/kg/injection, schedule: Q01DX009 (ip), vehicle: Klucel (hydroxypropylcellulose) (HPC)) 113 % of control.

Regarding `NS(=O)(=O)c1cc(Br)ccc1Br`, the T/C by setting is: under setting [7], 99 % of control; under setting [8], 117 % of control; under setting [9], 117 % of control.
